Measurements published in the supplement of paper PMC10307832.

Columns and labels:
Experiment in all cases: relative viability (nuclei count vs DMSO), 5 days (fraction); higher = more cells survive
[1] = compound: O[C@@H](COc1cccc2ncccc12)CN1CCN([C@@H]2c3ccccc3[C@@H]3[C@H](c4ccccc42)C3(F)F)CC1 [Zosuquidar] + O=C(c1cc(Cc2n[nH]c(=O)c3ccccc23)ccc1F)N1CCN(C(=O)C2CC2)CC1 [Olaparib] (partner 8 µM)
How it was run: (§1)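 Five library-drug doses in √10 steps were combined with a fixed anchor-drug dose, or a single drug was given alone, by pin tool to lung cancer cell lines in 1536-well plates the day after seeding. Nuclei were stained and counted after 5 days. Relative viability is the nuclei count in treated wells over that in vehicle wells, taken as the median of duplicate plates.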

[2] = compound: C1=CC(=CC=C1NC(=S)NNC2=C(C=C(C=C2[N+](=O)[O-])C(F)(F)F)[N+](=O)[O-])F [Kobe2602] + Cc1nc(Nc2ncc(C(=O)Nc3c(C)cccc3Cl)s2)cc(N2CCN(CCO)CC2)n1 [Dasatinib] (partner 0.075 µM)
How it was run: as §1

[3] = compound: C1=CC(=CC=C1NC(=S)NNC2=C(C=C(C=C2[N+](=O)[O-])C(F)(F)F)[N+](=O)[O-])F [Kobe2602] + NC(=O)Nc1cc(-c2cccc(F)c2)sc1C(=O)N[C@H]1CCCNC1 [AZD7762] (partner 0.2 µM)
How it was run: as §1

[4] = compound: COc1cc2nccc(Oc3ccc(NC(=O)C4(C(=O)Nc5ccc(F)cc5)CC4)cc3)c2cc1OC [Cabozantinib] + NC(=O)Nc1cc(-c2cccc(F)c2)sc1C(=O)N[C@H]1CCCNC1 [AZD7762] (partner 0.2 µM)
How it was run: as §1

Cell Line | relative viability ([1]; first compound 0.01 µM) | relative viability ([1]; first compound 0.03162 µM) | relative viability ([1]; first compound 0.1 µM) | relative viability ([1]; first compound 0.3162 µM) | relative viability ([1]; first compound 1 µM) | relative viability ([2]; first compound 0.2 µM) | relative viability ([2]; first compound 0.6325 µM) | relative viability ([2]; first compound 2 µM) | relative viability ([2]; first compound 6.325 µM) | relative viability ([2]; first compound 20 µM) | relative viability ([3]; first compound 0.2 µM) | relative viability ([3]; first compound 0.6325 µM) | relative viability ([3]; first compound 2 µM) | relative viability ([3]; first compound 6.325 µM) | relative viability ([3]; first compound 20 µM) | relative viability ([4]; first compound 0.02 µM) | relative viability ([4]; first compound 0.06325 µM) | relative viability ([4]; first compound 0.2 µM) | relative viability ([4]; first compound 0.6325 µM) | relative viability ([4]; first compound 2 µM)
NCI-H522 | 0.724 | 0.623 | 0.684 | 0.766 | 0.668 | 0.83 | 0.977 | 0.914 | 0.874 | 0.952 | 1.02 | 1.14 | 0.855 | 0.954 | 0.859 | 0.704 | 0.767 | 0.819 | 0.999 | 0.865
NCI-H596 | 0.651 | 0.607 | 0.67 | 0.696 | 0.666 | 0.57 | 0.678 | 0.57 | 0.661 | 0.644 | 1.13 | 0.978 | 1.03 | 0.87 | 1.02 | 1.12 | 1.35 | 1.15 | 1.07 | 1.09
LCLC-103H | 0.743 | 0.721 | 0.808 | 0.759 | 0.695 | 0.47 | 0.487 | 0.457 | 0.512 | 0.49 | 0.76 | 0.842 | 0.791 | 0.848 | 0.81 | 0.762 | 0.87 | 0.811 | 0.813 | 0.721
HCC-78 | 0.939 |  |  | 0.862 | 0.846 | 0.413 | 0.393 | 0.373 | 0.427 | 0.535 | 0.7 | 0.675 | 0.748 | 0.588 | 0.774 |  | 0.699 | 0.466 | 0.46 | 0.39
NCI-H1975 | 0.722 | 0.753 | 0.784 | 0.734 | 0.866 | 0.31 | 0.371 | 0.334 | 0.302 | 0.23 | 0.724 | 0.791 | 0.658 | 0.645 | 0.662 | 0.673 | 0.828 | 0.683 | 0.678 | 0.682
